Assay results reported in US10517296B2, “Insect pest control material” ([…] Control Consortium, priority 2015, dated 2019).

What was measured:
[1] = test system: Anopheles gambiae VK7-strain; assay: Basic insecticidal activity, topical application method, pyrethroid-resistive strain (Test Example 3); format: in vivo; conditions: for 50% Lethal Dose (LD50): pyrethroid-resistive female adult Anopheles gambiae VK7-strain, topical application, mortality after 24 hours; for Relative Efficacy: ratio of LD50 values relative to Deltamethrin (=1), VK7-strain
Procedure: (§1) The basic insecticidal activity of the present compound was examined using a topical application method. Various concentrations of acetone solutions of the present compound were previously prepared. […] After the treatment, the female adults of Cancer Vieja Madara mosquito were moved into a plastic cup (having a diameter of 9 cm and a height of about 4.5 cm), and was fed with 5% sugar water. The mortality after 24 hours was examined. The number of the tested female adults of Cancer Vieja Madara mosquito was 10 heads per each one concentration in two replicate experiments. The 50% lethal dose (the LD50 value) of the present compound was calculated from the test result using probit method. The same experiment was conducted using Deltamethrin as a control. The lower 50% lethal dose of a compound means the higher basic insecticidal activity of the compound. The ratio of the LD50 value of the present compound relative to the LD50 value of Deltamethrin was calculated to acquire the relative efficacy of the present compound to Deltamethrin.
The basic insecticidal activity of each of the present compound and Deltamethrin was examined using the same method as that used in Test Example 1. Here the tested female adults of Cancer Vieja Madara mosquito were pyrethroid-resistive female adults of Cancer Vieja Madara mosquito (Anopheles gambiae VK7-strain), and the number of the tested insects was 10 heads per each one concentration in two replicate experiments. The ratio of the LD50 value of the present compound relative to the LD50 value of Deltamethrin was calculated to acquire the relative efficacy of the present compound to Deltamethrin.

[2] = test system: Anopheles gambiae Kisumu-strain; assay: Basic insecticidal activity, topical application method (Test Example 1); format: in vivo; conditions: for 50% Lethal Dose (LD50): female adult Anopheles gambiae Kisumu-strain, topical 0.3 μL acetone solution, mortality after 24 hours, probit method; for Relative Efficacy: ratio of LD50 values relative to Deltamethrin (=1), Kisumu-strain
Procedure: as §1

Row | SMILES | 50% Lethal Dose (LD50) [1] [μg/female] | Relative Efficacy [1] | 50% Lethal Dose (LD50) [2] [μg/female] | Relative Efficacy [2]
1 | CCc1ncnc(NCCc2ccc(C(F)(F)F)cc2)c1Cl [The present compound, 5-chloro-4-ethyl-6-[2-(4-trifluoromethylphenyl)ethylamino]pyrimidine] | 0.01833 | 0.05674 | 0.0094 | 0.0100
2 | CC1(C)[C@H](C(=O)O[C@H](C#N)c2cccc(Oc3ccccc3)c2)[C@@H]1C=C(Br)Br [Deltamethrin] | 0.00104 | 1 | 0.000094 | 1
